Experimental findings from patent publication US20160213639A1, “COMPOSITIONS AND METHODS FOR TREATING NON-ALCOHOLIC STEATOHEPATITIS” (MOCHIDA PHARMACEUTICAL CO., LTD., priority 2013, published 2016) are described below.

One data set is described as follows: Elasticity of arteries. The following applies: rabbits. The class given is in vivo.
Data set [1] can be described thus: Safety pharmacology studies. The class given is in vivo. The following applies: oral doses up to 3000 mg/kg.
Data set [2] deals with NASH. Put plainly: Phase II NASH trial: liver histology (NAS, steatosis, ballooning, inflammation, fibrosis). The class given is in vivo, human. The following applies: for subjects who met the primary endpoint: 12 months, p=ns vs placebo (20); for mean decrease in NAS: placebo 0.9, p=n.s.; for subjects with a decrease in NAS by more than 2 points: placebo sixteen, p=n.s. The text has this:
(§1) This example provides the protocol used for an ongoing phase II clinical trial, double blind, placebo-controlled study to investigate the safety, efficacy, and pharmacokinetic profile of two doses of EPA-E in subjects with NASH. Up to 70 subjects were enrolled into each treatment arm, for a total of 210 subjects to be enrolled. Block randomization using an interactive voice response system (IVRS) was used to assign patients in a 1:1:1 ratio to two active doses and placebo. Patients were stratified at randomization by presence or absence of diabetes. Patients with diabetes comprised no more than 25% of the total number of patients enrolled. Subjects were treated with 600 mg EPA-E, 900 mg EPA-E or placebo three times a day for one year.
In order to support the trial, EPA-E capsules and matching placebo capsules were prepared. EPA-E capsule is an oval soft gelatin capsule containing 300 mg of EPA-E as an active ingredient. […] These capsules are unidentifiable as EPA-E capsules or placebo capsules.
Subjects were administered orally 3 capsules 3 times daily, immediately after meals.
Adult subjects with biopsy-confirmed NASH within six months prior to randomization or those with suspected NASH were screened for the study. […] The histology was assessed using the NASH CRN criteria. The histological entry criteria included (1) the presence of possible or definite steatohepatitis, and (2) a NAFLD activity score (NAS) ≧4 with a minimum score of 1 each for steatosis and inflammation plus either ballooning or at least stage 1a sinusoidal fibrosis. The nonalcoholic nature of the disease was defined by a history of consumption of less than 3 drinks daily (approximately 10 gm alcohol/drink) for the previous 5 years. Those who exceeded these limits at the time of randomization or for more than 3 consecutive months within the five year time frame were excluded.
The liver biopsies from subjects being considered for the trial were sent to a central pathology laboratory where they were read and scored. A total of 4 pathologists with experience in liver histopathology reviewed the biopsies. All the pathologists underwent a training session conducted by the lead pathologist (OWC) prior to the study. After slide quality assessment, the cases were randomly assigned to 2 reviewers who scored fatty change, lobular inflammation, hepatocyte ballooning and fibrosis as previously described. If there was a discrepancy between any of these evaluations, a third randomly assigned reviewer agreed with one of the choices thereby producing a single concordant NAS and fibrosis score for the biopsy.
(§2) Following confirmation of eligibility based on both inclusion and exclusion criteria, subjects were randomized to receive placebo or one of two doses of EPA-E (1800 mg/day or 2700 mg/day) in three divided doses daily. Block randomization using an interactive voice response system was used to assign subjects in a 1:1:1 ratio between the three arms. Subjects were stratified by the presence of diabetes, impaired glucose tolerance or metabolic syndrome on stable doses of medication. The total fraction of such individuals was capped at 40% of the study cohort.
(§3) All subjects were followed according to a predefined clinic schedule. Data from unscheduled visits were collected in separate forms. Following twelve months of treatment, all subjects underwent a protocol-driven liver biopsy. Study drug was then discontinued.
The primary one-year efficacy endpoint was a composite of either a NAS <3 without worsening of fibrosis or a drop in NAS by 2 or more with contribution from more than one parameter and no worsening of fibrosis. The proportions of subjects meeting this endpoint after 12 months of treatment in those receiving EPA-E were compared to those receiving placebo using the Cochrane-Armitage trend test. A short-term efficacy endpoint was changes from baseline in alanine aminotransferase at 3 and 6 months. This was assessed by analysis of covariance. […]

In data set [3] the test system is NASH. Put plainly: Phase II NASH trial: laboratory parameters and circulating markers. The class given is in vivo, human.
From the text: as §1, §2, §3
The primary one-year efficacy endpoint was a composite of either a NAS <3 without worsening of fibrosis or a drop in NAS by 2 or more with contribution from more than one parameter and no worsening of fibrosis. The proportions of subjects meeting this endpoint after 12 months of treatment in those receiving EPA-E were compared to those receiving placebo using the Cochrane-Armitage trend test. A short-term efficacy endpoint was changes from baseline in alanine aminotransferase at 3 and 6 months. This was assessed by analysis of covariance. Secondary endpoints included changes in the individual histological parameters related to NAFLD, overall NAS, liver enzymes and function, hemoglobin A1C, acute phase reactants, insulin sensitivity as measured by the homeostatic model (HOMA-IR), levels of cytokeratin 18 (CK18), hyaluronic acid, type IV collagen (7S domain), procollagen III peptide and key cytokines. Proportions of subjects meeting categorical endpoints were compared using the Cochrane-Armitage test for trend. Numerical scores were compared using Wilcoxon 2-sample tests. Safety-related endpoints included adverse events including hematological-, biochemical-, renal- and EKG-related abnormalities. These were enumerated.

A short description of data set [4]: Phase II NASH trial: safety analysis. The class given is in vivo, human. The following applies: over the course of the study, all arms.
From the text: as §1, with “year. […]” for “year.”
The primary one-year efficacy endpoint was a composite of either a NAS <3 without worsening of fibrosis or a drop in NAS by 2 or more with contribution from more than one parameter and no worsening of fibrosis. […] This was assessed by analysis of covariance. Secondary endpoints included changes in the individual histological parameters related to NAFLD, overall NAS, liver enzymes and function, hemoglobin A1C, acute phase reactants, insulin sensitivity as measured by the homeostatic model (HOMA-IR), levels of cytokeratin 18 (CK18), hyaluronic acid, type IV collagen (7S domain), procollagen III peptide and key cytokines. […]

Regarding `CC/C=C\C/C=C\C/C=C\C/C=C\C/C=C\CCCC(=O)OCC` [EPA-E, ethyl all-cis-5,8,11,14,17-eicosapentaenoate], the elasticity of arteries entry in “Elasticity of arteries” is reported as “preserve the elasticity of arteries”. Besides, the “effect on central nervous, autonomic nervous, respiratory and cardiovascular systems” value in data set [1] is “no effect on the central nervous, autonomic nervous, respiratory and cardiovascular systems”. Also, the “distribution of fibrosis scores” value in the data set with NASH [2] (any of the treatment arms, over the duration of the study) is “no significant changes in the distribution of fibrosis scores”. In addition, the steatosis grade result in the data set with NASH [2] (cohort as a whole, low dose and high dose, efficacy evaluable dataset) is given as “Neither low dose-nor high dose-EPA-E affected the steatosis grade significantly”. For the same compound, the results for the “subjects who met the primary endpoint” value in the data set with NASH [2] (high dose EPA-E (2700 mg/day)) and in the data set on NASH [2] (low dose EPA-E (1800 mg/day)) were 22 subjects and 19 subjects, respectively. The entries for the “mean decrease in NAS” value with NASH [2] (high dose EPA-E (2700 mg/day)) and with NASH [2] (low dose EPA-E (1800 mg/day)) were 0.8 and 1, respectively. The “subjects with a decrease in NAS by more than 2 points” value in the data set on NASH [2] (high dose EPA-E (2700 mg/day)) is listed as 18 subjects; with NASH [2] (low dose EPA-E (1800 mg/day)) it was 16 subjects. Also, in the data set on NASH [2] (low dose and high dose, efficacy evaluable dataset), the “cytological ballooning and lobular inflammation scores” value is given as “not significantly altered”. The “increased likelihood of beneficial impact on overall NAS score” value was 10 fold with NASH [2] (women <50, 1800 mg/day vs placebo, adjusted, p<0.03) and 7 fold in the data set on NASH [2] (women <50, 2700 mg/day vs placebo, adjusted, p<0.04). Further, the “increased likelihood of beneficial impact on steatosis grade” value in the data set on NASH [2] (women <50, 1800 mg/day vs placebo, adjusted, p<0.04) was found to be 8 fold. The “odds ratio, beneficial impact in steatosis” value in the data set on NASH [2] (women under 50 years of age, low dose EPA-E vs placebo, adjusted for baseline histology, BMI and changes in BMI, p=0.03) is listed as 7.9. Moreover, the “odds ratio, beneficial impact in overall NAS” value is 10.5 with NASH [2] (women under 50 years of age, low dose EPA-E vs placebo, adjusted, p=0.02) and 6.8 with NASH [2] (women under 50 years of age, second value (dose group not given), adjusted, p=0.03). The body mass index entry in the data set on NASH [3] (across groups) is recorded as “remained similar across groups”. Moreover, the “AST, ALT or GGT” value with NASH [3] (baseline to end of study, FIG. 8) is recorded as “no significant changes”. Besides, the “HgbA1C or circulating fasting insulin concentrations” value in the data set with NASH [3] (either active treatment arm compared to placebo) was “no significant changes”. For the same compound, the “change in serum triglycerides” value in the data set with NASH [3] (high dose EPA-E, placebo 11.5±50.9, p<0.05, Wilcoxon rank sum test) is listed as −4.9±116.0. Further, the “change in serum ALT” value with NASH [3] (high dose EPA-E, placebo −24.1±48.3, p<0.05, Wilcoxon rank sum test) is reported as −3.2±51.5. In addition, the hepatic synthetic functions result in the data set on NASH [3] (over the course of the study) was “did not change over the course of the study and remained stable”. Also, the deaths result in data set [4] is on record as “No deaths occurred”.
